Here are results for 20 compounds from patent US20040122026A1, “Imidazolidine compounds” (Millennium Pharmaceuticals, Inc., priority 2002, published 2004).

This experiment deals with T1, CXCR3 (Homo sapiens, UniProt P49682).
T1 construct: expressed in transfected cells; membrane preparation
T1 sequence (P49682 1-368): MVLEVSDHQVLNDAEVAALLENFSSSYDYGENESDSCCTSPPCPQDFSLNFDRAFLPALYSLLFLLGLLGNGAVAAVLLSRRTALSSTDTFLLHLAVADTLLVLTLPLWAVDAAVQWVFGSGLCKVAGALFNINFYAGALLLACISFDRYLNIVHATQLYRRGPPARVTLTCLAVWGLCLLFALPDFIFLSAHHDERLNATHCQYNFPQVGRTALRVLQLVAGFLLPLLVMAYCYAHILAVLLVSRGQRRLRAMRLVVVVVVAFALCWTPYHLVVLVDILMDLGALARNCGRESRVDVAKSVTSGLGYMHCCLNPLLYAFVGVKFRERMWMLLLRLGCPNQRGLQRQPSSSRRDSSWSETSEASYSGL
Nature of the experiment: CXCR3/IP-10 radioligand binding (125I-IP-10 competition on CXCR3.L1/2 cell membranes). Conditions: test compound 10 μmol/L, 125I-labeled IP-10 binding to CXCR3.L1/2 transfectant cell membranes. The source says:
The activity of the compounds of the present invention can be assessed using a suitable assay, such as a receptor binding assay, a chemotaxis assay, an extracellular acidification assay or a calcium flux assay (see, for example, Hesselgesser et al., J. Biol. Chem., 273(25): 15687-15692 (1998) and WO 98/02151). For example, as described herein, small organic molecule antagonists of CXCR3/IP-10 binding have been identified utilizing cells engineered to express recombinant human CXCR3 (CXCR3.L1/2) and which bind ^125I-IP-10 and chemotax in response to IP-10, Mig, or I-TAC. Specifically, a high through-put receptor binding assay, which monitors ^125I-IP-10 biding to CXCR3.L1/2 cell membranes, was used to identify small molecule antagonists. Binding assays can be performed using other ligands of CXCR3, such as, Mig, and/or I-TAC.
CXCR3/IP-10 Radioligand Binding:
CXCR3.L1/2 Membrane Preparation:
CXCR3.L1/2 cells were pelleted by centrifugation and stored at −80° C. The cells were lysed by thawing and resuspending at about 1.5×10^7 cells/mL in a hypotonic buffer (5 mmol/L HEPES (pH 7.2), 2 mmol/L EDTA, 10 μg/mL each leupeptin, aprotinin, and chymostatin, and 100 μg/mL PMSF (all from Sigma, St. Louis)). Nuclei and cellular debris are removed by centrifugation ([…], at 4° C.) for 10 min. The supernatant was transferred to chilled centrifuge tubes (Nalge, Rochester, N.Y.) and the membrane fraction was recovered by centrifugation (25,000 g at 4° C.) for 45 min. The membrane pellet was resuspended in freezing buffer (10 mmol/L HEPES (pH 7.2), 300 mmol/L Sucrose, 5 μg/mL each of leupeptin, aprotinin, and chymostatin, and 10 μg/mL PMSF). The total protein concentration was determined using a coomassie blue staining protein concentration assay kit (BioRad). The membrane preparations are aliquoted and stored at −80° C. until time of use.
CXCR3/IP-10 binding was performed in 96-well polypropylene plates (Costar) in a final volume of 0.1 mL of HBB buffer (50 mmol/L Hepes pH 7.4, 1 mmol/L CaCl2, 5 mmol/L MgCl2, 0.02% sodium azide, 0.5% BSA (bovine serum albumin)), containing 1 to 5 μg CXCR3.L1/2 transfectant cell membrane protein and 0.05 to 0.2 nmol/L of ^125I-labeled IP-10 (NEN, Boston, Mass.). Competition binding experiments were performed by including variable concentrations of unlabeled IP-10 or test compound. Nonspecific binding was determined following the addition of a 250 nmol/L unlabelled IP-10. Samples were incubated for 60 min at room temperature, and bound and free tracer (^125I-labeled IP-10) were separated by filtration through 96-well GF/B filterplates presoaked in 0.3% polyethyleneimine. The filters were washed in HBB further supplemented with 0.5 mol/L NaCl, dried, and the amount of bound radioactivity determined by liquid scintillation counting. The competition is presented as the percent specific binding as calculated by 100×[(S−B)/(T−B)], where S is the radioactivity bound for each sample, B is background binding, and T is total bound in the absence of competitors. Duplicates were used throughout the experiments.

One may read the inhibition as the drop in the measured response relative to a control, in per cent.

In the case of `Cc1cc(C)cc(CN2CCN(CCC(=O)N(C)c3cccc(CN4CCCCC4)c3)C2=C(C#N)C#N)c1` [Compound 1, N-Methyl-N-[3-(piperidinomethyl)phenyl]-3-[3-(3,5-dimethylbenzyl)-2-dicyanomethylideneimidazolidin-1-yl]propionamide], the inhibition at 10 µM (results Table 5) amounted to 92%.

For `CCCN(C(=O)CCN1CCN(Cc2cc(C)cc(C)c2)C1=C(C#N)C#N)c1cccc(CN2CCCCC2)c1` [Compound 2, N-Propyl-N-[3-(piperidinomethyl)phenyl]-3-[3-(3,5-dimethylbenzyl)-2-dicyanomethylideneimidazolidin-1-yl]propionamide], the inhibition at 10 µM (results Table 5) came out at 99%.

Turning to `Cc1cc(C)cc(CN2CCN(CCC(=O)N(c3cccc(CN4CCCCC4)c3)C(C)C)C2=C(C#N)C#N)c1` [Compound 3, N-Isopropyl-N-[3-(piperidinomethyl)phenyl]-3-[3-(3,5-dimethylbenzyl)-2-dicyanomethylideneimidazolidin-1-yl]propionamide], the inhibition at 10 µM (results Table 5) is 106%.

Consider `Cc1cc(C)cc(CN2CCN(CCC(=O)N(c3cccc(CN4CCCCC4)c3)C3CCCCC3)C2=C(C#N)C#N)c1` [Compound 4, N-Cyclohexyl-N-[3-(piperidinomethyl)phenyl]-3-[3-(3,5-dimethylbenzyl)-2-dicyanomethylideneimidazolidin-1-yl]propionamide], for which the inhibition at 10 µM (results Table 5) was 109%.

With `Cc1cc(C)cc(CN2CCN(CCC(=O)N(Cc3ccccc3)c3cccc(CN4CCCCC4)c3)C2=C(C#N)C#N)c1` [Compound 5, N-Benzyl-N-[3-(piperidinomethyl)phenyl]-3-[3-(3,5-dimethylbenzyl)-2-dicyanomethylideneimidazolidin-1-yl]propionamide], the inhibition at 10 µM (results Table 5) was 95%.

For `CC(=O)OCCN(C(=O)CCN1CCN(Cc2cc(C)cc(C)c2)C1=C(C#N)C#N)c1cccc(CN2CCCCC2)c1` [Compound 6, N-(2-Acetoxyethyl)-N-[3-(piperidinomethyl)phenyl]-3-[3-(3,5-dimethylbenzyl)-2-dicyanomethylideneimidazolidin-1-yl]propionamide], the inhibition at 10 µM (results Table 5) came to 93%.

For the compound `Cc1cc(C)cc(CN2CCN(CCC(=O)N(CCO)c3cccc(CN4CCCCC4)c3)C2=C(C#N)C#N)c1` [Compound 7, N-(2-Hydroxyethyl)-N-[3-(piperidinomethyl)phenyl]-3-[3-(3,5-dimethylbenzyl)-2-dicyanomethylideneimidazolidin-1-yl]propionamide], the inhibition at 10 µM (results Table 5) stood at 83%.

With `CCOC(=O)CN(C(=O)CCN1CCN(Cc2cc(C)cc(C)c2)C1=C(C#N)C#N)c1cccc(CN2CCCCC2)c1` [Compound 8, N-Ethoxycarbonylmethyl-N-[3-(piperidinomethyl)phenyl]-3-[3-(3,5-dimethylbenzyl)-2-dicyanomethylideneimidazolidin-1-yl]propionamide], the inhibition at 10 µM (results Table 5) was 95%.

`Cc1cc(C)cc(CN2CCN(CCC(=O)N(CC(=O)O)c3cccc(CN4CCCCC4)c3)C2=C(C#N)C#N)c1` [Compound 9, N-Carboxymethyl-N-[3-(piperidinomethyl)phenyl]-3-[3-(3,5-dimethylbenzyl)-2-dicyanomethylideneimidazolidin-1-yl]propionamide]: the inhibition at 10 µM (results Table 5) is 83%.

As to `Cc1cc(C)cc(CN2CCN(CCC(=O)N(CCCF)c3cccc(CN4CCCCC4)c3)C2=C(C#N)C#N)c1` [Compound 11, N-(3-Fluoropropyl)-N-[3-(piperidinomethyl)phenyl]-3-[3-(3,5-dimethylbenzyl)-2-dicyanomethylideneimidazolidin-1-yl]propionamide], the inhibition at 10 µM (results Table 5) is 95%.

Regarding `Cc1cc(C)cc(CN2CCN(CCC(=O)N(CC(N)=O)c3cccc(CN4CCCCC4)c3)C2=C(C#N)C#N)c1` [Compound 12, N-Aminocarbonylmethyl-N-[3-(piperidinomethyl)phenyl]-3-[3-(3,5-dimethylbenzyl)-2-dicyanomethylideneimidazolidin-1-yl]propionamide], the inhibition at 10 µM (results Table 5) is 84%.

In the case of `Cc1cc(C)cc(CN2CCN(CCC(=O)N(Cc3nnn[nH]3)c3cccc(CN4CCCCC4)c3)C2=C(C#N)C#N)c1` [Compound 13, N-(1H-tetrazol-5-ylmethyl)-N-[3-(piperidinomethyl)phenyl]-3-[3-(3,5-dimethylbenzyl)-2-dicyanomethylideneimidazolidin-1-yl]propionamide], the inhibition at 10 µM (results Table 5) turned out to be 67%.

For `Cc1cccc(CN2CCN(CCC(=O)N(c3cccc(CN4CCCCC4)c3)C(C)C)C2=C(C#N)C#N)c1C` [Compound 14, N-Isopropyl-N-[3-(piperidinomethyl)phenyl]-3-[3-(2,3-dimethylbenzyl)-2-dicyanomethylideneimidazolidin-1-yl]propionamide], the inhibition at 10 µM (results Table 6) is 105%.

For the compound `CC(C)N(C(=O)CCN1CCN(C2Cc3cccc4cccc2c34)C1=C(C#N)C#N)c1cccc(CN2CCCCC2)c1` (centres unmarked) [Compound 15, N-Isopropyl-N-[3-(piperidinomethyl)phenyl]-3-[3-(1-acenaphthenyl)-2-dicyanomethylideneimidazolidin-1-yl]propionamide], the inhibition at 10 µM (results Table 6) is 95%.

`CC(C)N(C(=O)CCN1CCN(Cc2cc(Cl)cc(Cl)c2)C1=C(C#N)C#N)c1cccc(CN2CCCCC2)c1` [Compound 17, N-Isopropyl-N-[3-(piperidinomethyl)phenyl]-3-[3-(3,5-dichlorobenzyl)-2-dicyanomethylideneimidazolidin-1-yl]propionamide]: the inhibition at 10 µM (results Table 6) was 93%.

Consider `CCCN(C(=O)CCN1CCN(Cc2cc(Cl)cc(Cl)c2)C1=C(C#N)C#N)c1cc(CN2CCCCC2)ccc1C` [Compound 18, N-Propyl-N-[2-methyl-5-(piperidinomethyl)phenyl]-3-[3-(3,5-dichlorobenzyl)-2-dicyanomethylideneimidazolidin-1-yl]propionamide], for which the inhibition at 10 µM (results Table 6) turned out to be 94%.

As to `CCCN(C(=O)CCN1CCN(Cc2cc(Cl)cc(Cl)c2)C1=C(C#N)C#N)c1cc(CN2CCCCC2)ccc1Cl` [Compound 19, N-Propyl-N-[2-chloro-5-(piperidinomethyl)phenyl]-3-[3-(3,5-dichlorobenzyl)-2-dicyanomethylideneimidazolidin-1-yl]propionamide], where the note is “results Table 6”, the inhibition at 10 µM amounted to 101%.

For the compound `CCCN(C(=O)CCN1CCN(Cc2cc(Cl)cc(Cl)c2)C1=C(C#N)C#N)c1cccc(CN2CCCCC2)c1C` [Compound 20, N-Propyl-N-[2-methyl-3-(piperidinomethyl)phenyl]-3-[3-(3,5-dichlorobenzyl)-2-dicyanomethylideneimidazolidin-1-yl]propionamide], the inhibition at 10 µM (results Table 6) was 68%.

In the case of `CCCNCc1cccc(N(CC)C(=O)CCN2CCN(Cc3cc(C)cc(C)c3)C2=C(C#N)C#N)c1` [Compound 21, N-Ethyl-N-[3-(propylaminomethyl)phenyl]-3-[3-(3,5-dimethylbenzyl)-2-dicyanomethylideneimidazolidin-1-yl]propionamide], where the note is “results Table 6”, the inhibition at 10 µM is 71%.

Regarding `Cc1cc(C)cc(CN2CCN(CCC(=O)N(c3cccc(CN4CCOCC4)c3)C(C)C)C2=C(C#N)C#N)c1` [Compound 22, N-Isopropyl-N-[3-(morpholinomethyl)phenyl]-3-[3-(3,5-dimethylbenzyl)-2-dicyanomethylideneimidazolidin-1-yl]propionamide], the inhibition at 10 µM (results Table 6) turned out to be 93%.
